Source: ChEMBL document CHEMBL1136080, “(+/-)-2-(3-Piperidyl)-1,2,3,4-tetrahydroisoquinolines as a new class of specific bradycardic agents” (2003)

Tests used:
Assay type in all cases: functional
Rattus norvegicus [1] = assay: Dose to produce minimal influence on mean blood pressure in anesthetized rats
Rattus norvegicus [2] = assay: Percentage change in heart rate from the initial value in urethane-anesthetized rats at 3 mg/kg intravenous dose
Cavia porcellus = species on record: Cavia porcellus; assay: Concentration required to produce 30% reduction (in vitro) from the initial spontaneous beat rates in isolated guinea pig atrium; settings: Cardiac atrium

SMILES | Dose (Rattus norvegicus [1]) [mg/kg] | Change (Rattus norvegicus [2]) [%] | EC30 (Cavia porcellus) [nM]
COc1cc2c(cc1OC)CN(C1CCCN(CCCOc3ccc4c(c3)OCO4)C1)CC2 (centres undefined) | 10 | 47 | 250
COc1cc2c(cc1OC)CN(C1CCCN(CCCCc3ccccc3)C1)CC2 (centres undefined) | – | 23 | 540
COc1ccc(OCCCN2CCCC(N3CCc4cc(OC)c(OC)cc4C3)C2)cc1OC (centres undefined) | – | 47 | 380
COc1cc2c(cc1OC)CN(C1CCCN(CCCOc3ccc4c(c3)CCC4)C1)CC2 (centres undefined) | – | 38 | 660
COc1ccc(CCN(C)CCCN2CCc3cc(OC)c(OC)cc3CC2=O)cc1OC [ZATEBRADINE] | – | 47 | 260
COc1cc2c(cc1OC)CN(C1CCCN(CCCOc3ccc4c(c3)-c3ccccc3C4)C1)CC2 (centres undefined) | – | – | 4100
COc1cc2c(cc1OC)CN(C1CCCN(CCCc3ccccc3)C1)CC2 (centres undefined) | – | – | 1200
COc1ccc(OCCCN2CCCC(N3CCc4cc(OC)c(OC)cc4C3)C2)cc1 (centres undefined) | – | 40 | 390
COc1cc2c(cc1OC)CN(C1CCCN(CCCOc3ccc4ccccc4c3)C1)CC2 (centres undefined) | – | 23 | 840
COc1cc2c(cc1OC)CN(C1CCCN(Cc3ccccc3)C1)CC2 (centres undefined) | – | 33 | 830
COc1cc2c(cc1OC)CN(C1CCCN(CCCOc3ccccc3)C1)CC2 (centres undefined) | – | 40 | 430
COc1cc2c(cc1OC)CN(C1CCCN(CCCCCc3ccccc3)C1)CC2 (centres undefined) | – | – | 1300
COc1cc2c(cc1OC)CN(C1CCCN(CCCOc3cc(OC)c(OC)c(OC)c3)C1)CC2 (centres undefined) | – | – | 1500
COc1cc2c(cc1OC)CN(C1CCCN(CCc3ccccc3)C1)CC2 (centres undefined) | – | – | 2200
